Experimental findings from publication PMC6544337, “Development of chimeric and bifunctional antagonists for CLR/RAMP receptors” (PLoS ONE, 2019) are described below.

Experiment [1] addresses T1, CLR/RAMP1 (Homo sapiens, UniProt O60894+Q16602). The experiment in a line: CLR/RAMP1 cAMP assay, agonist mode (DiscoveRx HitHunter cAMP XS+). It counts as cell-based. The note with it: for CLR/RAMP1 Max Activity % of control: agonist mode, positive control CGRP, 1321N1 cells. On the procedure: (§1) The bioactivity of synthetic analogs was studied using cells that stably express CLR/RAMP1 (1321N1 cells) or CLR/RAMP2 (CHO-K1 cells) receptors using CLR/RAMP1 cAMP and CLR/RAMP2 arrestin assays from DiscoveRx (Fremont, Ca). In receptor-activation assays, the dose-dependent stimulatory response was studied in duplicate, at 10 different concentrations.
For the analysis of signaling in CLR/RAMP1-expressing cells, cAMP Hunter cell lines were expanded from freezer stocks, and cells were seeded in white walled, 384-well microplates and incubated at 37C for the appropriate time. The activity was determined using the DiscoveRx HitHunter cAMP XS+ assay. Media was aspirated from cells and replaced with 15 μl 2:1 HBSS/10mM Hepes:cAMP XS+ Ab reagent. Intermediate dilution of sample stocks was performed to generate 4X sample in assay buffer, and 5 μl of 4X sample was added to cells and incubated at 37C or room temperature for the appropriate time. Vehicle concentration was 1%.
Microplates were read with a PerkinElmer instrument for chemiluminescent signal detection.

In experiment [2] the target is T2, CLR/RAMP2 (Homo sapiens, UniProt O60895+Q16602). The experiment in a line: CLR/RAMP2 PathHunter β-arrestin assay, agonist mode. Format: cell-based. The note with it: for CLR/RAMP2 Max Activity % of control: agonist mode, positive control ADM, CHO-K1 cells. On the procedure:
as §1
(§2) The CLR/RAMP2 signaling was assayed using the CLR/RAMP2 PathHunter β-Arrestin assay. In this assay, the GPCR was fused in frame with a small enzyme donor fragment ProLink (PK) and co-expressed in cells stably expressing a fusion protein of β-arrestin and an N-terminal deletion mutant of β-galactosidase (i.e., enzyme acceptor or EA). Activation of the CLR/RAMP2 stimulates binding of β-arrestin to the PK-tagged receptor and leads to an increase in enzyme activity that can be measured using chemiluminescent PathHunter Detection Reagents. PathHunter cell lines were seeded in white walled, 384-well microplates and incubated at 37C prior to testing. For agonist determination, intermediate dilution of sample stocks was performed to generate 5X sample in assay buffer, and 5 μl of 5X sample was added to cells and incubated at 37C for 90 minutes. Vehicle concentration was 1%. For antagonistic activity determination, cells were pre-incubated with antagonist followed by agonist challenge at the EC80 concentration.

Experiment [3] concerns the target CLR/RAMP1 receptor complex (UniProt Q16602).
For experiment [4], the target named is CLR/RAMP2 receptor complex (UniProt Q16602).
For experiment [5] the target is unchanged. The source holds these as a separate data set.
In experiment [6] the target is T2, CLR/RAMP2. The experiment in a line: CLR/RAMP2 PathHunter β-arrestin assay, antagonist mode (ADM challenge at EC80). Format: cell-based. The note with it: for IC50: inhibition of ADM-mediated signaling, CHO-K1 cells, pre-incubation with antagonist, then agonist at EC80, β-arrestin read-out; for Emax: maximum inhibition of ADM-mediated signaling, in % of a positive control, read-out: CLR/RAMP2 Max Activity % of control (antagonistic). The procedure:
as §1, §2

The target in experiment [7] is T1, CLR/RAMP1. The experiment in a line: CLR/RAMP1 cAMP assay, antagonist mode (CGRP challenge at EC80). It counts as cell-based. The following applies: for Emax: maximum inhibition of CGRP-mediated signaling, in % of a positive control, read-out: CLR/RAMP1 Max Activity % of control (antagonistic).

T1 sequence (Q16602 23-461): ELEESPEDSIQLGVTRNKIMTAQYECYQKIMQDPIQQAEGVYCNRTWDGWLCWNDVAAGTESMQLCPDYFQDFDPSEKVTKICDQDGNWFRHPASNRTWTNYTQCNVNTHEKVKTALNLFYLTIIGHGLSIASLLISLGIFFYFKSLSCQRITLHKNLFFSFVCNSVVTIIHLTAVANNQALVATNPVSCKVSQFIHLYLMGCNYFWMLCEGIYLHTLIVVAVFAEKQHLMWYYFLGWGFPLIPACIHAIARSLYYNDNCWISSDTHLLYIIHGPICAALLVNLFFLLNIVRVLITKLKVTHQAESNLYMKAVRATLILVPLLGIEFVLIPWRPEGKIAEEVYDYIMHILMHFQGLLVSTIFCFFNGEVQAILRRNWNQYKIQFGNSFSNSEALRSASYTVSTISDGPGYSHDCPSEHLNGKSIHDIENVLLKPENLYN
T1 sequence (O60894 27-148): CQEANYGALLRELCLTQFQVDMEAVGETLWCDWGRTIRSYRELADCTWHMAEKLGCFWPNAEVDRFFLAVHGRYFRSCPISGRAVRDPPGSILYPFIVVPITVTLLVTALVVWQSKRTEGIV
Chain of CLR/RAMP2 receptor complex (Q16602 23-461, chain 1 of 2): as the sequence (Q16602 23-461) above
Chain of CLR/RAMP2 receptor complex (O60895 43-175, chain 2 of 2, further chain): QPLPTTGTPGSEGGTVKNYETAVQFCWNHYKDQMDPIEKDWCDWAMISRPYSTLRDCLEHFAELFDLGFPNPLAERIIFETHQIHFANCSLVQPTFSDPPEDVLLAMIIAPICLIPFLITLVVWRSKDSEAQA
T2 sequence (Q16602 23-461): as the sequence (Q16602 23-461) above
T2 sequence (O60895 43-175): as the sequence (O60895 43-175, chain 2 of 2, further chain) above
Chain of CLR/RAMP1 receptor complex (Q16602 23-461, chain 1 of 2): as the sequence (Q16602 23-461) above
Chain of CLR/RAMP1 receptor complex (O60894 27-148, chain 2 of 2, further chain): as the sequence (O60894 27-148) above

On to `CC[C@H](C)[C@H](NC(=O)[C@H](CCC(N)=O)NC(=O)[C@H](Cc1c[nH]cn1)NC(=O)[C@H](C)NC(=O)[C@H](CC(C)C)NC(=O)[C@H](CCCCN)NC(=O)[C@H](CCC(N)=O)NC(=O)[C@@H](NC(=O)[C@@H](NC(=O)[C@@H]1CSSC[C@H](NC(=O)CNC(=O)[C@@H](N)Cc2ccccc2)C(=O)N[C@@H](CCCNC(=N)N)C(=O)N[C@@H](Cc2ccccc2)C(=O)NCC(=O)N[C@@H]([C@@H](C)O)C(=O)N1)[C@@H](C)O)C(C)C)C(=O)N[C@@H](Cc1ccc(O)cc1)C(=O)N[C@@H](CCC(N)=O)C(=O)N[C@@H](Cc1ccccc1)C(=O)N[C@H](C(=O)N[C@@H](CC(=O)O)C(=O)N[C@@H](CCCCN)C(=O)N[C@@H](CC(=O)O)C(=O)N[C@@H](CCCCN)C(=O)N[C@@H](CC(=O)O)C(=O)N[C@@H](CC(N)=O)C(=O)N[C@H](C(=O)N[C@@H](C)C(=O)N1CCC[C@H]1C(=O)N[C@@H](CCCNC(=N)N)C(=O)N[C@@H](CO)C(=O)N[C@@H](CCCCN)C(=O)N[C@H](C(=O)N[C@@H](CO)C(=O)N1CCC[C@H]1C(=O)N[C@@H](CCC(N)=O)C(=O)NCC(=O)N[C@@H](Cc1ccc(O)cc1)C(N)=O)[C@@H](C)CC)C(C)C)[C@@H](C)O` [ADM14-52, adrenomedullin 14–52, reference compound], for which the “CLR/RAMP1 Max Activity % of control” value on CLR/RAMP1 [1] is on record as 69 % of control. Further, the “CLR/RAMP2 Max Activity % of control” value on CLR/RAMP2 [2] is recorded as 102 % of control.
As for ADM22-52 (peptide), the IC50 of inhibition of CGRP-mediated CLR/RAMP1 cAMP signalling (EC80 of CGRP; pair blocked: m4 + m24) in experiment [3] is 6600 nM. Also, the IC50 of inhibition of ADM-mediated CLR/RAMP2 β-arrestin signalling (EC80 of ADM; pair blocked: ADM + m25) in experiment [4] came out at 256 nM.
As to `CSCC[C@H](NC(=O)CNC(=O)CNC(=O)[C@H](CO)NC(=O)[C@H](CCCNC(=N)N)NC(=O)[C@H](CO)NC(=O)[C@H](CC(C)C)NC(=O)[C@H](CC(C)C)NC(=O)CNC(=O)[C@H](C)NC(=O)[C@H](CC(C)C)NC(=O)[C@H](CCCNC(=N)N)NC(=O)[C@H](Cc1c[nH]cn1)NC(=O)[C@@H](NC(=O)[C@@H](NC(=O)[C@@H]1CSSC[C@H](NC(=O)[C@H](C)N)C(=O)N[C@@H](CC(N)=O)C(=O)N[C@@H]([C@@H](C)O)C(=O)N[C@@H](C)C(=O)N[C@@H]([C@@H](C)O)C(=O)N1)C(C)C)[C@@H](C)O)C(=O)N[C@H](C(=O)N[C@@H](CCCCN)C(=O)N[C@@H](CO)C(=O)N[C@@H](CC(N)=O)C(=O)N[C@@H](Cc1ccccc1)C(=O)N[C@H](C(=O)N1CCC[C@H]1C(=O)N[C@H](C(=O)N[C@@H](CC(N)=O)C(=O)N[C@H](C(=O)NCC(=O)N[C@@H](CO)C(=O)N[C@@H](CCCCN)C(=O)N[C@@H](C)C(=O)N[C@@H](Cc1ccccc1)C(N)=O)C(C)C)[C@@H](C)O)C(C)C)C(C)C` [CGRP, calcitonin gene-related peptide], on CLR/RAMP1 [1], the “CLR/RAMP1 Max Activity % of control” value is on record as 103 % of control.
With adrenomedullin 14–52 (peptide), in experiment [5], the EC50 of CLR/RAMP2 signalling (CHO-K1 cells, PathHunter β-Arrestin assay) turned out to be 9 nM.
With `CC[C@H](C)[C@H](NC(=O)[C@H](CCC(N)=O)NC(=O)[C@H](Cc1c[nH]cn1)NC(=O)[C@H](C)NC(=O)[C@H](CC(C)C)NC(=O)[C@H](CCCCN)NC(=O)[C@H](CCC(N)=O)NC(=O)[C@@H](NC(=O)[C@@H](NC(=O)[C@@H]1CSSC[C@H](NC(=O)CNC(=O)[C@@H](N)CCCCN)C(=O)N[C@@H](CCCNC(=N)N)C(=O)N[C@@H](Cc2ccccc2)C(=O)NCC(=O)N[C@@H]([C@@H](C)O)C(=O)N1)[C@@H](C)O)C(C)C)C(=O)N[C@@H](Cc1ccc(O)cc1)C(=O)N[C@@H](CCC(N)=O)C(=O)N[C@@H](Cc1ccccc1)C(=O)N[C@H](C(=O)N[C@@H](CC(=O)O)C(=O)N[C@@H](CCCCN)C(=O)N[C@@H](CC(=O)O)C(=O)N[C@@H](CCCCN)C(=O)N[C@@H](CC(=O)O)C(=O)N[C@@H](CC(N)=O)C(=O)N[C@@H](CO)C(=O)N[C@@H](C)C(=O)N1CCC[C@H]1C(=O)N[C@H](C(=O)N[C@@H](CC(=O)O)C(=O)N1CCC[C@H]1C(=O)N[C@@H](CO)C(=O)N[C@@H](CO)C(=O)N1CCC[C@H]1C(=O)N[C@@H](Cc1c[nH]cn1)C(=O)N[C@@H](CO)C(=O)N[C@@H](Cc1ccc(O)cc1)C(N)=O)C(C)C)[C@@H](C)O` [Agonist 2], the EC50 at CLR/RAMP1 [1] (1321N1 cells stably expressing CLR/RAMP1, cAMP read-out, chemiluminescence, 10-point dose response, 3-fold dilution, in duplicate) came out at 31 nM; at CLR/RAMP2 [2] (CHO-K1 cells stably expressing CLR/RAMP2, β-arrestin recruitment, 90 min at 37C, 10-point dose response in duplicate), 18 nM. On CLR/RAMP1 [1], the “CLR/RAMP1 Max Activity % of control” value is listed as 95 % of control. In addition, the “CLR/RAMP2 Max Activity % of control” value at CLR/RAMP2 [2] is listed as 115 % of control.
adrenomedullin 2 (peptide): the EC50 of CLR/RAMP2 signalling (CHO-K1 cells, PathHunter β-Arrestin assay) in experiment [5] was 70 nM.
With CGRP8-37 (peptide), the IC50 of inhibition of ADM-mediated CLR/RAMP2 β-arrestin signalling (EC80 of ADM; pair blocked: ADM + m25) in experiment [4] is greater than 10000 nM.
`CC[C@H](C)[C@H](NC(=O)[C@H](CCCCN)NC(=O)[C@H](CO)NC(=O)[C@H](CCCNC(=N)N)NC(=O)[C@@H]1CCCN1C(=O)[C@H](C)NC(=O)[C@@H](NC(=O)[C@H](CC(N)=O)NC(=O)[C@H](CC(=O)O)NC(=O)[C@H](CCCCN)NC(=O)[C@H](CC(=O)O)NC(=O)[C@H](CCCCN)NC(=O)[C@H](CC(=O)O)NC(=O)[C@@H](NC(=O)[C@H](Cc1ccccc1)NC(=O)[C@H](CCCNC(=N)N)NC(=O)[C@H](CO)NC(=O)[C@H](CC(C)C)NC(=O)[C@H](CC(C)C)NC(=O)CNC(=O)[C@H](C)NC(=O)[C@H](CC(C)C)NC(=O)[C@H](CCCNC(=N)N)NC(=O)[C@H](Cc1c[nH]cn1)NC(=O)[C@@H](NC(=O)[C@@H](N)C(C)C)[C@@H](C)O)[C@@H](C)O)C(C)C)C(=O)N[C@@H](CO)C(=O)N1CCC[C@H]1C(=O)N[C@@H](CCC(N)=O)C(=O)NCC(=O)N[C@@H](Cc1ccc(O)cc1)C(N)=O` [Antagonist 1–5]: at CLR/RAMP2 [6], the IC50 was 117 nM and the Emax is 100%. At CLR/RAMP1 [7], the half-maximal inhibitory concentration (IC50) came to 1880 nM and the Emax worked out at 99%.
Turning to `CCCCCCCCCCCCCCCC(=O)NCC(=O)N[C@H]1CSSC[C@@H](C(=O)N[C@H](C(=O)N[C@H](C(=O)N[C@@H](CCC(N)=O)C(=O)N[C@@H](CCCCN)C(=O)N[C@@H](CC(C)C)C(=O)N[C@@H](C)C(=O)N[C@@H](Cc2c[nH]cn2)C(=O)N[C@@H](CCC(N)=O)C(=O)N[C@H](C(=O)N[C@@H](Cc2ccc(O)cc2)C(=O)N[C@@H](CCC(N)=O)C(=O)N[C@@H](Cc2ccccc2)C(=O)N[C@H](C(=O)N[C@@H](CC(=O)O)C(=O)N[C@@H](CCCCN)C(=O)N[C@@H](CC(=O)O)C(=O)N[C@@H](CCCCN)C(=O)N[C@@H](CC(=O)O)C(=O)N[C@@H](CC(N)=O)C(=O)N[C@H](C(=O)N[C@@H](C)C(=O)N2CCC[C@H]2C(=O)N[C@@H](CCCNC(=N)N)C(=O)N[C@@H](CO)C(=O)N[C@@H](CCCCN)C(=O)N[C@H](C(=O)N[C@@H](CO)C(=O)N2CCC[C@H]2C(=O)N[C@@H](CCC(N)=O)C(=O)NCC(=O)N[C@@H](Cc2ccc(O)cc2)C(N)=O)[C@@H](C)CC)C(C)C)[C@@H](C)O)[C@@H](C)CC)C(C)C)[C@@H](C)O)NC(=O)[C@H]([C@@H](C)O)NC(=O)CNC(=O)[C@H](Cc2ccccc2)NC(=O)[C@H](CCCNC(=N)N)NC1=O` [Agonist 3], the “CLR/RAMP2 Max Activity % of control” value on CLR/RAMP2 [2] was 78 % of control.
Turning to `CC[C@H](C)[C@H](NC(=O)[C@H](CCC(N)=O)NC(=O)[C@H](Cc1c[nH]cn1)NC(=O)[C@H](C)NC(=O)[C@H](CC(C)C)NC(=O)[C@H](CCCCN)NC(=O)[C@H](CCC(N)=O)NC(=O)[C@@H](NC(=O)[C@@H](N)[C@@H](C)O)C(C)C)C(=O)N[C@@H](Cc1ccc(O)cc1)C(=O)N[C@@H](CCC(N)=O)C(=O)N[C@@H](Cc1ccccc1)C(=O)N[C@H](C(=O)N[C@@H](CC(=O)O)C(=O)N[C@@H](CCCCN)C(=O)N[C@@H](CC(=O)O)C(=O)N[C@@H](CCCCN)C(=O)N[C@@H](CC(=O)O)C(=O)N[C@@H](CC(N)=O)C(=O)N[C@H](C(=O)N[C@@H](C)C(=O)N1CCC[C@H]1C(=O)N[C@@H](CCCNC(=N)N)C(=O)N[C@@H](CO)C(=O)N[C@@H](CCCCN)C(=O)N[C@H](C(=O)N[C@@H](CO)C(=O)N1CCC[C@H]1C(=O)N[C@@H](CCC(N)=O)C(=O)NCC(=O)N[C@@H](Cc1ccc(O)cc1)C(N)=O)[C@@H](C)CC)C(C)C)[C@@H](C)O` [ADM22-52, reference compound], on CLR/RAMP2 [6], the 50% inhibitory concentration (IC50) amounted to 256 nM and the Emax was 105%. Besides, at CLR/RAMP1 [7], the 50% inhibitory concentration (IC50) came out at 6600 nM and the Emax came to 57%.
